We go through three compounds from patent US6699908B2, “Methods for providing safe local anesthesia” (Euro-Celtique, S.A., priority 1996, dated 2004).

The subject of one series is sciatic nerve. In words: Local injection proximal to the sciatic nerve, rat hot plate assay / dose-response. The format is in vivo. Conditions: rats, local injection of 25 mg/kg (8 mg/nerve). On the technique in general: In hot-plate and tail-flick tests a longer latency is read as antinociception.
Another series concerns Sprague-Dawley rats. The experiment in a line: Single dose toxicity (acute lethality) in rats, intramuscular. Type of series: in vivo. The following applies: for Mortality: I.M. How it is done:
Sprague-Dawley rats from Charles River, 6-8 weeks of age (body weight about […] for females and about 200-290 grams for males) were used for these studies.
Male and female rats were dosed intramuscularly in the hind limb with bupivacaine base (the form used in the microspheres), aqueous bupivacaine HCl, or LAB. The animals were examined for pharmacotoxic signs (including tremors and convulsions, and death).

The conditions of series [1]: in vivo; cited from earlier work.

Where a name gives a salt, the structure may show the parent alone.

For the compound `CCCCN1CCCCC1C(=O)Nc1c(C)cccc1C` (stereo not drawn) [Bupivacaine HCl, bupivacaine HCl], in the series with sciatic nerve, the “deaths of the animals” value is “about 10%”. In addition, the Mortality in the series on Sprague-Dawley rats (5 mg/kg) was 0/4; with Sprague-Dawley rats (10 mg/kg), 0/4; in the series on Sprague-Dawley rats (25 mg/kg), 0/4; in the series with Sprague-Dawley rats (50 mg/kg, HCl), 4/4; in the series with Sprague-Dawley rats (100 mg/kg, HCl), 4/4. The compound also returned a lowest lethal dose in the series with Sprague-Dawley rats (intramuscular dosing) of 10.6 mg/kg. Also, the “paralysis of the hindlimb (local motor anesthesia)” value in the series on Sprague-Dawley rats (intramuscular dosing in the hind limb) was “More transient paralysis”.

Regarding `CCCCN1CCCCC1C(=O)Nc1c(C)cccc1C` (stereo not drawn) [Bupivacaine free base, bupivacaine base], the Mortality in the series on Sprague-Dawley rats (50 mg/kg) was 1/4; in the series with Sprague-Dawley rats (100 mg/kg) it was 1/4; in the series on Sprague-Dawley rats (150 mg/kg), 2/4.

In the case of `CCCCN1CCCCC1C(=O)Nc1c(C)cccc1C` (stereo not drawn) [bupivacaine], in series [1], the “plasma concentrations associated with toxicity” value was over 1600 ng/mL.
